Assay results published in ChEMBL document CHEMBL3137667, “[Drug-induced liver injury; fourteenth updated edition of the bibliographic database of liver injuries and related drugs]” (Gastroenterol Clin Biol, 2004).

Tests used:
[1] = Highest frequency of moderate liver toxicity observed during clinical trials, expressed as a percentage. [column '% BIOL' in source]; settings: human
[2] = human
[3] = human; remark: listed apart in the source
[4] = human, serum, 4383 h
[5] = human; remark: listed apart in the source
[6] = human; remark: listed apart in the source
[7] = Highest frequency of acute liver toxicity observed during clinical trials, expressed as a percentage. [column '% AIGUE' in source]; settings: human
[8] = human, serum
[9] = human; remark: listed apart in the source
[10] = human; remark: listed apart in the source
[11] = human; remark: listed apart in the source
[12] = human, serum; remark: listed apart in the source
[13] = human; remark: listed apart in the source
[14] = human; remark: listed apart in the source
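Wherever Hepatotoxicity (association with vascular disease) is given: count of indexed literature references reporting vascular liver injury in humans, e.g. peliosis hepatitis, hepatic veno-occlusive disease or Budd-Chiari syndrome.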
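Wherever Hepatotoxicity (benign tumour) is given: value is a count of indexed literature references citing a benign tumour confirmed by histopathology.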
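Wherever Hepatotoxicity (choleostasis) is given: human cholestatic liver injury, shown by histopathology or by peak ALT or AST elevation over alkaline phosphatase ratio below 2, value counts indexed literature reports.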
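Wherever Hepatotoxicity (chronic liver disease) is given: chronic liver injury confirmed by histopathology or persistently raised serum aminotransferase activity beyond 6 months, value given as the count of indexed literature references.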
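Wherever Hepatotoxicity (cirrhosis) is given: value is a count of indexed literature references reporting cirrhosis confirmed by histopathology.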
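Wherever Hepatotoxicity (cytolytic) is given: human cytolytic liver injury, shown by histopathology or by a ratio above 5 of peak ALT or AST elevation to alkaline phosphatase elevation, value counts indexed references.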
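Wherever Hepatotoxicity (granulomatous hepatitis) is given: value is a count of indexed literature references reporting granulomatous liver disease confirmed by histopathology.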
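Wherever Hepatotoxicity (malignant tumour) is given: malignant tumour confirmed by histopathology, value gives the count of indexed literature references reporting it.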
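Wherever Hepatotoxicity (severe hepatitis) is given: human clinical data: severe hepatitis, meaning potentially life-threatening liver failure or clinically observed cases, the value counts how many indexed literature references report it.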
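Wherever Hepatotoxicity (steatosis) is given: steatosis confirmed by histopathology, value is the count of indexed references.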

| Compound | Hepatotoxicity (moderate) [1] [%] | Hepatotoxicity (steatosis) [2] | Hepatotoxicity (severe hepatitis) [3] | Hepatotoxicity (chronic liver disease) [4] | Hepatotoxicity (cirrhosis) [5] | Hepatotoxicity (malignant tumour) [6] | Hepatotoxicity (acute) [7] [%] | Hepatotoxicity (acute) [8] | Hepatotoxicity (association with vascular disease) [9] | Hepatotoxicity (cytolytic) [10] | Hepatotoxicity (granulomatous hepatitis) [11] | Hepatotoxicity (moderate) [12] | Hepatotoxicity (benign tumour) [13] | Hepatotoxicity (choleostasis) [14] |
| --- | --- | --- | --- | --- | --- | --- | --- | --- | --- | --- | --- | --- | --- | --- |
| CN1CCN(c2c(F)cc3c(=O)c(C(=O)O)cn(CCF)c3c2F)CC1 [FLEROXACIN] | 8.3 | 0 | 0 | 0 | 0 | 0 | 0 | 0 | 0 | 0 | 0 | 13 | 0 | 0 |
| CC(C)(CNC(N)=O)NCC(O)COC(=O)c1ccccc1F (stereo not drawn) [FLESTOLOL] | 6.7 | 0 | 0 | 0 | 0 | 0 | 0 | 0 | 0 | 0 | 0 | 2 | 0 | 0 |
| COC(=O)Nc1nc2cc(C(=O)c3ccc(F)cc3)ccc2[nH]1 [FLUBENDAZOLE] | 6 | 0 | 0 | 0 | 0 | 0 | 0 | 1 | 0 | 1 | 0 | 1 | 0 | 0 |
| O=C(O)c1ccccc1Nc1cccc(C(F)(F)F)c1 [FLUFENAMIC ACID] | 0 | 0 | 0 | 0 | 0 | 0 | 0 | 0 | 0 | 0 | 0 | 1 | 0 | 0 |
| Fc1ccc(C(c2ccc(F)cc2)N2CCN(C/C=C/c3ccccc3)CC2)cc1 [FLUNARIZINE] | 1.4 | 0 | 0 | 0 | 0 | 0 | 0 | 0 | 0 | 0 | 0 | 1 | 0 | 0 |
| C[C@H](C(=O)O)c1ccc2oc(-c3ccc(F)cc3)nc2c1 [FLUNOXAPROFEN] | 0 | 0 | 0 | 0 | 0 | 0 | 0 | 0 | 0 | 0 | 0 | 2 | 0 | 0 |
| CN1CCN(C2=Nc3cc(F)ccc3Cc3ccccc32)CC1 [FLUPERLAPINE] | 23 | 0 | 0 | 0 | 0 | 0 | 0 | 0 | 0 | 0 | 0 | 4 | 0 | 0 |
| CCOC(=O)Nc1ccc(NCc2ccc(F)cc2)nc1N [FLUPIRTINE] | 10 | 0 | 0 | 0 | 0 | 0 | 0 | 0 | 0 | 0 | 0 | 2 | 0 | 0 |
| CC[C@H]1OC(=O)[C@H](C)[C@@H](O[C@H]2C[C@@](C)(OC)[C@@H](O)[C@H](C)O2)[C@H](C)[C@@H](O[C@@H]2O[C@H](C)C[C@H](N(C)C)[C@H]2O)[C@](C)(O)C[C@](C)(F)C(=O)[C@H](C)[C@@H](O)[C@]1(C)O [FLURITHROMYCIN] | 3.6 | 0 | 0 | 0 | 0 | 0 | 0 | 0 | 0 | 0 | 0 | 1 | 0 | 0 |
| O=C(O)P(=O)(O)O [FOSCARNET] | 12 | 0 | 0 | 0 | 0 | 0 | 0 | 0 | 0 | 0 | 0 | 2 | 0 | 0 |
| O=CN(O)CCCP(=O)(O)O [FOSMIDOMYCIN] | 7.7 | 0 | 0 | 0 | 0 | 0 | 0 | 0 | 0 | 0 | 0 | 1 | 0 | 0 |
| CCOP(=O)(OCC)C(C)NC(=O)N(CCCl)N=O (stereo not drawn) [FOTEMUSTINE] | 30.8 | 0 | 0 | 0 | 0 | 0 | 0 | 1 | 0 | 0 | 0 | 9 | 0 | 0 |
